{"source": "PubChem BioAssay AID330", "about": "(DTP/NCI, 2004)", "tested_on": "P388 leukemia ip, CD2F1 mice, survival T/C", "test": "NCI In Vivo Anticancer Drug Screen. Data for tumor model P388 Leukemia (intraperitoneal) in CD2F1 (CDF1) mice", "conditions": "endpoint: median survival time, higher = longer survival", "summary_of_the_method": "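Mice carrying the transplanted tumor received test compound or vehicle. Survival was recorded in each group, and the value is the treated-group measurement divided by that of the vehicle-treated control group.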", "key": {"[1]": {"conditions": "dose: 25.0 mg/kg/injection, schedule: Q01DX005 (ip), vehicle: saline with Tween-80"}, "[2]": {"conditions": "dose: 50.0 mg/kg/injection, schedule: Q01DX005 (ip), vehicle: saline with Tween-80"}, "[3]": {"conditions": "dose: 50.0 mg/kg/injection, schedule: Q01DX009 (ip), vehicle: Klucel (hydroxypropylcellulose) (HPC)"}, "[4]": {"conditions": "dose: 100.0 mg/kg/injection, schedule: Q01DX009 (ip), vehicle: Klucel (hydroxypropylcellulose) (HPC)"}, "[5]": {"conditions": "dose: 100.0 mg/kg/injection, schedule: Q01DX005 (ip), vehicle: saline with Tween-80"}, "[6]": {"conditions": "dose: 200.0 mg/kg/injection, schedule: Q01DX005 (ip), vehicle: saline with Tween-80"}, "[7]": {"conditions": "dose: 60.0 mg/kg/injection, schedule: Q01DX005 (ip), vehicle: saline with Tween-80"}, "[8]": {"conditions": "dose: 120.0 mg/kg/injection, schedule: Q01DX005 (ip), vehicle: saline with Tween-80"}}, "note": "Where “and” joins values, the source holds several entries; their conditions need not be identical. Equal values may be shown once. Inconclusive results and toxic doses are left out. Peptide text beside a SMILES is read from it. * marks the point of attachment. Tos = Cc1ccc(S(=O)(=O)*)cc1; Bn = c1ccc(C*)cc1"}
{"smiles": "Cn1c(CN(Cc2nc3ccccc3n2C)Cc2nc3ccccc3n2C)nc2ccccc21", "values": [{"measurement": "T/C", "setting": "dose: 12.5 mg/kg/injection, schedule: Q01DX005 (ip), vehicle: saline with Tween-80", "result": "103 % of control and 98 % of control"}, {"measurement": "T/C", "setting": "[1]", "result": "100 % of control and 102 % of control"}, {"measurement": "T/C", "setting": "[2]", "result": "103 % of control and 110 % of control"}]}
{"smiles": "CSCCCCN=[N+]=[N-]", "values": [{"measurement": "T/C", "setting": "dose: 60.0 mg/kg/injection, schedule: Q01DX005 (ip), vehicle: saline", "result": "104 % of control"}, {"measurement": "T/C", "setting": "dose: 120.0 mg/kg/injection, schedule: Q01DX005 (ip), vehicle: saline", "result": "112 % of control"}]}
{"smiles": "COC(=O)CC1(C(=O)OC)C2=C(C(=O)c3ccccc3C2=O)N2CCCC21", "note": "(configuration not stated)", "values": [{"measurement": "T/C", "setting": "dose: 12.5 mg/kg/injection, schedule: Q01DX009 (ip), vehicle: Klucel (hydroxypropylcellulose) (HPC)", "result": "99 % of control"}, {"measurement": "T/C", "setting": "dose: 25.0 mg/kg/injection, schedule: Q01DX009 (ip), vehicle: Klucel (hydroxypropylcellulose) (HPC)", "result": "100 % of control"}, {"measurement": "T/C", "setting": "[3]", "result": "106 % of control"}, {"measurement": "T/C", "setting": "[4]", "result": "103 % of control"}]}
{"smiles": "Cc1c(-c2ccccc2)n(O)c(-c2ccc(N(C)C)cc2)[n+]1[O-]", "values": [{"measurement": "T/C", "setting": "dose: 50.0 mg/kg/injection, schedule: Q01DX009 (ip), vehicle: saline with Tween-80", "result": "98 % of control"}, {"measurement": "T/C", "setting": "dose: 100.0 mg/kg/injection, schedule: Q01DX009 (ip), vehicle: saline with Tween-80", "result": "92 % of control"}, {"measurement": "T/C", "setting": "dose: 200.0 mg/kg/injection, schedule: Q01DX009 (ip), vehicle: saline with Tween-80", "result": "91 % of control"}]}
{"smiles": "O=C1C=CC(=O)N1C(=O)NC(NC(=O)N1C(=O)C=CC1=O)c1ccc2c(c1)OCO2", "values": [{"measurement": "T/C", "setting": "[1]", "result": "102 % of control"}, {"measurement": "T/C", "setting": "[2]", "result": "98 % of control"}, {"measurement": "T/C", "setting": "[5]", "result": "95 % of control"}, {"measurement": "T/C", "setting": "[6]", "result": "102 % of control"}]}
{"smiles": "O=[N+]([O-])c1ccccc1N/N=C\\c1cccc2c(/C=N/Nc3ccccc3[N+](=O)[O-])c(Cl)n(-c3ccccc3)c12", "values": [{"measurement": "T/C", "setting": "dose: 200.0 mg/kg/injection, schedule: Q01DX001 (ip), vehicle: Klucel (hydroxypropylcellulose) (HPC)", "result": "88 % of control"}]}
{"smiles": "CCCCNC(=S)N/N=C1/CC(=O)N(c2ccccc2)C1c1ccccc1", "note": "(configuration not stated)", "values": [{"measurement": "T/C", "setting": "[7]", "result": "89 % of control"}, {"measurement": "T/C", "setting": "[8]", "result": "89 % of control"}]}
{"smiles": "COc1cc(C(=O)CC(=O)CCC(=O)Nc2ccc(Cl)cc2)ccc1O", "values": [{"measurement": "T/C", "setting": "[7]", "result": "104 % of control"}, {"measurement": "T/C", "setting": "[8]", "result": "103 % of control"}, {"measurement": "T/C", "setting": "dose: 240.0 mg/kg/injection, schedule: Q01DX005 (ip), vehicle: saline with Tween-80", "result": "98 % of control"}]}
{"smiles": "N=C(N)c1ccc(NC(=O)c2ccc(C(=O)Nc3ccc(C(=N)N)cc3)c(N)c2)cc1", "values": [{"measurement": "T/C", "setting": "[2]", "result": "110 % of control"}, {"measurement": "T/C", "setting": "[5]", "result": "107 % of control"}, {"measurement": "T/C", "setting": "[6]", "result": "87 % of control"}]}
{"smiles": "Cc1ccc(S(=O)(=O)NC(CSCc2ccccc2)C(=O)NC(Cc2ccc(O)cc2)C(=O)O)cc1", "note": "(configuration not stated) (Tos-Cys(Bn)-Tyr-OH; configuration not given here)", "values": [{"measurement": "T/C", "setting": "[2]", "result": "103 % of control"}, {"measurement": "T/C", "setting": "[5]", "result": "99 % of control"}, {"measurement": "T/C", "setting": "[6]", "result": "99 % of control"}]}
{"smiles": "COc1c2c(cc3c1OCO3)[C@]13C=C[C@H](OC)C[C@H]1N(C2)CC3O", "note": "(some centres not stated)", "values": [{"measurement": "T/C", "setting": "dose: 0.63 mg/kg/injection, schedule: Q01DX009 (ip), vehicle: saline with Tween-80", "result": "90 % of control"}, {"measurement": "T/C", "setting": "dose: 1.25 mg/kg/injection, schedule: Q01DX001 (ip), vehicle: saline", "result": "100 % of control"}, {"measurement": "T/C", "setting": "dose: 1.25 mg/kg/injection, schedule: Q01DX009 (ip), vehicle: saline with Tween-80", "result": "86 % of control"}, {"measurement": "T/C", "setting": "dose: 2.5 mg/kg/injection, schedule: Q01DX001 (ip), vehicle: saline", "result": "109 % of control"}, {"measurement": "T/C", "setting": "dose: 5.0 mg/kg/injection, schedule: Q01DX001 (ip), vehicle: saline with Tween-80", "result": "90 % of control"}]}
{"smiles": "Clc1cc(-c2ccccc2)no1", "values": [{"measurement": "T/C", "setting": "dose: 25.0 mg/kg/injection, schedule: Q04DX003 (ip), vehicle: Klucel (hydroxypropylcellulose) (HPC)", "result": "109 % of control"}, {"measurement": "T/C", "setting": "dose: 50.0 mg/kg/injection, schedule: Q04DX003 (ip), vehicle: Klucel (hydroxypropylcellulose) (HPC)", "result": "108 % of control"}, {"measurement": "T/C", "setting": "dose: 100.0 mg/kg/injection, schedule: Q04DX003 (ip), vehicle: Klucel (hydroxypropylcellulose) (HPC)", "result": "99 % of control and 112 % of control"}]}
{"smiles": "CC(C)(C)OC(=O)NC(CCCCNC(=O)C(F)(F)F)C(=O)O", "note": "(configuration not stated)", "values": [{"measurement": "T/C", "setting": "[3]", "result": "108 % of control"}, {"measurement": "T/C", "setting": "[4]", "result": "104 % of control"}, {"measurement": "T/C", "setting": "dose: 200.0 mg/kg/injection, schedule: Q01DX009 (ip), vehicle: Klucel (hydroxypropylcellulose) (HPC)", "result": "102 % of control"}]}
{"smiles": "CCCCOc1ccc(Nc2c(C(=O)O)cnc3cc4c(cc23)OCO4)cc1", "values": [{"measurement": "T/C", "setting": "dose: 60.0 mg/kg/injection, schedule: Q01DX005 (ip), vehicle: Klucel (hydroxypropylcellulose) (HPC)", "result": "100 % of control"}, {"measurement": "T/C", "setting": "dose: 120.0 mg/kg/injection, schedule: Q01DX005 (ip), vehicle: Klucel (hydroxypropylcellulose) (HPC)", "result": "91 % of control"}, {"measurement": "T/C", "setting": "dose: 240.0 mg/kg/injection, schedule: Q01DX005 (ip), vehicle: Klucel (hydroxypropylcellulose) (HPC)", "result": "97 % of control"}]}
{"smiles": "COC(=O)Nc1c2ccccc2nc2c1c(C)c(C)c1ccccc12", "values": [{"measurement": "T/C", "setting": "dose: 100.0 mg/kg/injection, schedule: Q01DX001 (ip), vehicle: saline with Tween-80", "result": "88 % of control"}, {"measurement": "T/C", "setting": "dose: 200.0 mg/kg/injection, schedule: Q01DX001 (ip), vehicle: saline with Tween-80", "result": "88 % of control"}, {"measurement": "T/C", "setting": "dose: 400.0 mg/kg/injection, schedule: Q01DX001 (ip), vehicle: saline with Tween-80", "result": "95 % of control"}]}
{"smiles": "NS(=O)(=O)c1ccc(C(=O)O)s1", "values": [{"measurement": "T/C", "setting": "[2]", "result": "104 % of control"}, {"measurement": "T/C", "setting": "[5]", "result": "100 % of control"}]}
